Data set [1] deals with T1, SLC22A24 (Homo sapiens, UniProt Q8N4F4).
T1 sequence (Q8N4F4 1-552): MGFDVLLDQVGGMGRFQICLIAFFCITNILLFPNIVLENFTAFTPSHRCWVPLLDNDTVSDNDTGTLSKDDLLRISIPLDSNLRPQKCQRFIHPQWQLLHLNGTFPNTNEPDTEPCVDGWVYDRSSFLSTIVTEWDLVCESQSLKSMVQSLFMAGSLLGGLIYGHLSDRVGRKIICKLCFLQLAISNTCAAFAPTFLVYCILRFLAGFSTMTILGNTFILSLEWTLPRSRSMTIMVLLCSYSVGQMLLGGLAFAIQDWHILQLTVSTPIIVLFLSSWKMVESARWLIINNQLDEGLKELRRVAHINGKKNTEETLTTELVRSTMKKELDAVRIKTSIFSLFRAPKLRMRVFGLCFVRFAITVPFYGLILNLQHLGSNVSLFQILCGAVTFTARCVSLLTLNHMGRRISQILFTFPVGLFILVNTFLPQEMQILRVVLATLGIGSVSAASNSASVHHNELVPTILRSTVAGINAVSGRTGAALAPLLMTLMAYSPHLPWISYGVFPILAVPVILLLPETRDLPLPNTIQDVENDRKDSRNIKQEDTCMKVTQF
The experiment in a line: cell-based.

Substrate in data set [2]: C[C@H](CCC(=O)NCC(=O)O)[C@H]1CC[C@H]2[C@@H]3[C@H](O)C[C@@H]4C[C@H](O)CC[C@]4(C)[C@H]3C[C@H](O)[C@]12C
The experiment in a line: cells, lysate or membranes. Format: cell-based, Homo sapiens.

Substrate in data set [3]: C[C@]12CC[C@@H]3c4ccc(O)cc4CC[C@H]3[C@@H]1CC[C@@H]2O[C@@H]1O[C@H](C(=O)O)[C@@H](O)[C@H](O)[C@H]1O
In words: cells, lysate or membranes. Format: cell-based, Homo sapiens.

Substrate in data set [4]: C[C@]12CC[C@@H]3c4ccc(OS(=O)(=O)O)cc4CC[C@H]3[C@@H]1CCC2=O
In words: cells, lysate or membranes.

Where a name gives a salt, the structure may show the parent alone. Read-outs that look alike come from different tables or passages of the source.

Here are results for seven molecules from article PMC6760779, “Unraveling the functional role of the orphan solute carrier, SLC22A24 in the transport of steroid conjugates through metabolomic and genome-wide association studies” (PLoS Genetics, 2019).

Regarding `CC(=O)[C@H]1CC[C@H]2[C@@H]3CCC4=CC(=O)CC[C@]4(C)[C@H]3CC[C@]12C` [Progesterone], the half-inhibitory concentration (IC50) in data set [1] came to 7.4 ± 3 µM.

For the molecule `CN(CCOc1ccc(CC2SC(=O)NC2=O)cc1)c1ccccn1` (stereo not drawn) [Rosiglitazone], the IC50 in data set [1] (read-out: IC50 [μM ± SD]) is 3.3 ± 1.4 µM.

In the case of `O=C(O)CSc1nnc(Br)n1-c1ccc(C2CC2)c2ccccc12` [Lesinurad], the IC50 in data set [1] (read-out: IC50 [μM ± SD]) was found to be 13 ± 6.1 µM.

Turning to `C[C@H](CCC(=O)O)[C@H]1CC[C@H]2[C@@H]3[C@@H](O)C[C@@H]4C[C@H](O)CC[C@]4(C)[C@H]3CC[C@]12C` [Ursodeoxycholic acid], the half-maximal inhibitory concentration (IC50) in data set [1] (read-out: IC50 [μM ± SD]) is 7.6 ± 1.2 µM.

Regarding `C[C@H](CCC(=O)O)[C@H]1CC[C@H]2[C@@H]3[C@H](O)C[C@@H]4C[C@H](O)CC[C@]4(C)[C@H]3CC[C@]12C` [Chenodeoxycholic acid], the IC50 in data set [1] (read-out: IC50 [μM ± SD]) came out at 2.6 ± 1 µM.

The molecule `CC(=O)[C@H]1CC[C@H]2[C@@H]3CC=C4C[C@@H](OS(=O)(=O)O)CC[C@]4(C)[C@H]3CC[C@]12C` [Pregnenolone sulfate] registered a concentration for half-maximal inhibition (IC50) in data set [1] of 1.4 ± 0.1 µM.

B1: SLC22A24 (Homo sapiens) (protein)
chain: T1 sequence (Q8N4F4 1-552)
As to B1, the Michaelis-Menten constant (Km) came to 33.4 ± 2.5 µM in data set [2], 17.5 ± 0.2 µM in data set [3] and 8.6 ± 0.3 µM in data set [4].

By IC50 is commonly meant the midpoint of a concentration-inhibition curve. The term Km denotes the concentration of substrate that gives half-maximal velocity.
